Measurements published in patent US11912693B2, “Compounds for modulating S1P1 activity and methods of using the same” (TREVENA, INC., priority 2017, dated 2024).

Legend:
[1] = target: T1, human sphingosine-1-phosphate receptor 1 (S1P1) (Homo sapiens (Human), UniProt P21453); assay: Inhibition of cAMP production (HTRF cAMP HiRange), S1P1 CHO-K1 cells; type: cell-based; conditions: for hS1P1 cAMP pEC50 / EC50: inhibition of cAMP production, S1P1 CHO-K1 cells; for Emax: CHO-K1, efficacy (SPAN) normalized to fingolimod, read-out: hS1P1 cAMP SPAN; for EC50: read-out: hS1P1 cAMP pEC50 (converted)
Method in brief: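 CHO-K1 cells stably co-expressing human S1P1 (C-terminal Prolink tag) and EA-β-arrestin2 were grown in AssayComplete Media 6 at 37° C. and 5% CO2, plated, and incubated overnight. Agonist-driven inhibition of intracellular cAMP was read by TR-FRET with the HTRF cAMP HiRange kit on a PheraStar reader. Potency is pEC50, and efficacy (SPAN) is normalized to fingolimod.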
Target sequence in this assay (P21453 whole entry, looked up): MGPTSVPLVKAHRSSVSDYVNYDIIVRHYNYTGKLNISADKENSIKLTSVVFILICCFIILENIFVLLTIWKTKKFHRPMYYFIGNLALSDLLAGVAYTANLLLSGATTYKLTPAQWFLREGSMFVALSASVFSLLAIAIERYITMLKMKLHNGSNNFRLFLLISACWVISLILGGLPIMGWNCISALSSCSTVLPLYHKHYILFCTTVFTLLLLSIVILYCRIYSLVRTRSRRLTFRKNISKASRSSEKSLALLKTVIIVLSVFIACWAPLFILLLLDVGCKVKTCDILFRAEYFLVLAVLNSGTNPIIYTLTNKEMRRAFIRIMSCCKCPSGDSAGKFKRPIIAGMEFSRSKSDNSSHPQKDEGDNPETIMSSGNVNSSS

[2] = target: T1, human sphingosine-1-phosphate receptor 1 (S1P1); assay: β-Arrestin2 recruitment assay (PathHunter), S1P1 CHO-K1 cells; type: cell-based; conditions: for hS1P1 B-arrestin2 pEC50 / EC50: β-arrestin2 recruitment, S1P1 CHO-K1 cells; for Emax: CHO-K1, efficacy (SPAN) normalized to fingolimod, read-out: hS1P1 B-arrestin2 SPAN; for EC50: read-out: hS1P1 B-arrestin2 pEC50 (converted)
Method in brief: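 Enzyme-fragment complementation read-out: agonist-driven β-arrestin2 binding to ProLink-tagged human S1P1 in stable CHO-K1 cells restores β-galactosidase, measured 1 h at room temperature after a 60 min 37° C. compound incubation. Potency as pEC50, efficacy relative to fingolimod (SPAN).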
Target sequence in this assay (P21453 whole entry, looked up): as above
Target sequence in this assay (P32121 whole entry partner, looked up): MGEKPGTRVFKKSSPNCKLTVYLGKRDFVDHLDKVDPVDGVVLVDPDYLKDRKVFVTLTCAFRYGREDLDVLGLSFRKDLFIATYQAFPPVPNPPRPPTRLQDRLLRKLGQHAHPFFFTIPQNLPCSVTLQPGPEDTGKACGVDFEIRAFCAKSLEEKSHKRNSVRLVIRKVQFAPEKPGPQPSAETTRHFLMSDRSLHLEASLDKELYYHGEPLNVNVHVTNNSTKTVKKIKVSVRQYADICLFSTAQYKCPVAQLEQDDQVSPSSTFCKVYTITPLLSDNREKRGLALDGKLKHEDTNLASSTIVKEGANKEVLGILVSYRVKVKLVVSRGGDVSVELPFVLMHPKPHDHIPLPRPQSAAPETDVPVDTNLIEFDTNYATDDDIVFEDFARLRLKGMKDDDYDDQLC

Row | Structure (SMILES) | hS1P1 cAMP pEC50 [1] | hS1P1 B-arrestin2 pEC50 [2] | Emax [1] [%] | EC50 [1] [µM] | Emax [2] [%] | EC50 [2] [µM]
1 | N#Cc1cc(-c2nnc(-c3ccc4c(c3)CCC(=O)N4)o2)ccc1NCCF [Compound 476, 2-[(2-fluoroethyl)amino]-5-[5-(2-oxo-1,2,3,4-tetrahydroquinolin-6-yl)-1,3,4-oxadiazol-2-yl]benzonitrile] | >6.5 | >5 | – | – | – | –
2 | N#Cc1cc(-c2nnc(-c3ccc4c(c3)CCC(=O)N4)o2)ccc1NCC(F)F [Compound 477, 2-[(2,2-difluoroethyl)amino]-5-[5-(2-oxo-1,2,3,4-tetrahydroquinolin-6-yl)-1,3,4-oxadiazol-2-yl]benzonitrile] | >6.5 | >5 | – | – | – | –
3 | O=C1CC(CO)(CO)Oc2ccc(-c3nc(-c4cccnc4)no3)cc21 [Compound 478, 2,2-bis(hydroxymethyl)-6-[3-(pyridin-3-yl)-1,2,4-oxadiazol-5-yl]-3,4-dihydro-2H-1-benzopyran-4-one] | <6.5 | <5 | – | – | – | –
4 | CC1(C)Oc2ccc(-c3nc(-c4cccnc4)no3)cc2C1=O [Compound 481, 2,2-dimethyl-5-[3-(pyridin-3-yl)-1,2,4-oxadiazol-5-yl]-2,3-dihydro-1-benzofuran-3-one] | <6.5 | >5 | – | – | – | –
5 | O=C1CC(CO)(CO)Oc2ccc(-c3nc(-c4ccncc4)no3)cc21 [Compound 482, 2,2-bis(hydroxymethyl)-6-[3-(pyridin-4-yl)-1,2,4-oxadiazol-5-yl]-3,4-dihydro-2H-1-benzopyran-4-one] | <6.5 | <5 | – | – | – | –
6 | O=C1c2cc(-c3nc(-c4ccncc4)no3)ccc2OC(CO)(CO)C1Br (stereo not drawn) [Compound 483, 3-bromo-2,2-bis(hydroxymethyl)-6-[3-(pyridin-4-yl)-1,2,4-oxadiazol-5-yl]-3,4-dihydro-2H-1-benzopyran-4-one] | <6.5 | <5 | – | – | – | –
7 | CC(C)Nc1ccc(-c2nnc(-c3ccc4[nH]c(=O)oc4c3)o2)cc1C#N [Compound 484, 5-[5-(2-oxo-2,3-dihydro-1,3-benzoxazol-6-yl)-1,3,4-oxadiazol-2-yl]-2-[(propan-2-yl)amino]benzonitrile] | >6.5 | >5 | – | – | – | –
8 | CCC1(CC)CC(=O)c2cc(-c3nc(-c4cc[nH]c4)no3)ccc2O1 [Compound 485, 6-(3-(1H-pyrrol-3-yl)-1,2,4-oxadiazol-5-yl)-2,2-diethylchroman-4-one] | >6.5 | <5 | – | – | – | –
9 | N#Cc1cc(-c2nnc(-c3ccc4[nH]c(=O)oc4c3)o2)ccc1NCC1CC1 [Compound 486, 2-[(cyclopropylmethyl)amino]-5-[5-(2-oxo-2,3-dihydro-1,3-benzoxazol-6-yl)-1,3,4-oxadiazol-2-yl]benzonitrile] | >6.5 | <5 | – | – | – | –
10 | N#Cc1cc(-c2nnc(-c3ccc4[nH]c(=O)oc4c3)o2)ccc1NCCF [Compound 487, 2-[(2-fluoroethyl)amino]-5-[5-(2-oxo-2,3-dihydro-1,3-benzoxazol-6-yl)-1,3,4-oxadiazol-2-yl]benzonitrile] | <6.5 | >5 | – | – | – | –
11 | Cc1cc(-c2noc(-c3ccc4c(c3)nnn4C(C)C)n2)c(C)o1 [Compound 490, 5-[3-(2,5-dimethylfuran-3-yl)-1,2,4-oxadiazol-5-yl]-1-(propan-2-yl)-1H-1,2,3-benzotriazole] | – | – | > 75 | < 0.316 | > 75 | < 10
12 | Cc1occc1-c1noc(-c2ccc3c(c2)nnn3CC(C)(C)O)n1 [Compound 492, 2-methyl-1-{5-[3-(2-methylfuran-3-yl)-1,2,4-oxadiazol-5-yl]-1H-1,2,3-benzotriazol-1-yl}propan-2-ol] | <6.5 | <5 | > 75 | – | > 75 | –
13 | CC(C)n1nnc2cc(-c3nc(-c4cccnc4Cl)no3)ccc21 [Compound 499, 5-[3-(2-chloropyridin-3-yl)-1,2,4-oxadiazol-5-yl]-1-(propan-2-yl)-1H-1,2,3-benzotriazole] | – | – | > 75 | < 0.316 | > 75 | < 10
14 | CCC1(CC)CC(=O)c2cc(-c3nc(-c4ccc5nonc5c4)no3)ccc2O1 [Compound 500, 6-[3-(2,1,3-benzoxadiazol-5-yl)-1,2,4-oxadiazol-5-yl]-2,2-diethyl-3,4-dihydro-2H-1-benzopyran-4-one] | <6.5 | <5 | – | – | – | –
15 | CC(C)(O)Cn1nnc2cc(-c3nc(-c4ccc5nc[nH]c5c4)no3)ccc21 [Compound 501, 1-{5-[3-(1H-1,3-benzodiazol-6-yl)-1,2,4-oxadiazol-5-yl]-1H-1,2,3-benzotriazol-1-yl}-2-methylpropan-2-ol] | <6.5 | <5 | < 75 | – | > 75 | –
16 | CC(C)n1nnc2cc(-c3nc4ccncc4o3)ccc21 [Compound 503, 2-(1-isopropyl-1H-benzo[d][1,2,3]triazol-5-yl)oxazolo[5,4-c]pyridine] | <6.5 | <5 | > 75 | – | > 75 | –
17 | CC(C)Cn1nnc2cc(-c3nc4ccncc4o3)ccc21 [Compound 504, 2-(1-isobutyl-1H-benzo[d][1,2,3]triazol-5-yl)oxazolo[5,4-c]pyridine] | <6.5 | <5 | > 75 | – | < 75 | –
18 | Cc1ccccc1-c1nc(-c2ccc3c(c2)nnn3CC(C)(C)CO)no1 [Compound 505, 2,2-dimethyl-3-(5-(5-(o-tolyl)-1,2,4-oxadiazol-3-yl)-1H-benzo[d][1,2,3]triazol-1-yl)propan-1-ol] | <6.5 | <5 | – | – | – | –
19 | CC(C)Nc1ccc(-c2ccc(-c3ccc4c(c3)nnn4C(C)C)cc2)cc1C#N [Compound 507, 4′-(1-isopropyl-1H-benzo[d][1,2,3]triazol-5-yl)-4-(isopropylamino)-[1,1′-biphenyl]-3-carbonitrile] | >6.5 | <5 | < 75 | – | < 75 | –

Further lines, results first:

Row | hS1P1 cAMP pEC50 [1] | hS1P1 B-arrestin2 pEC50 [2] | Emax [1] [%] | EC50 [1] [µM] | Emax [2] [%] | EC50 [2] [µM] | Structure (SMILES)
20 | <6.5 | <5 | – | – | – | – | O=C1c2cc(-c3nc(-c4cccnc4)no3)ccc2OC(CO)(CO)C1Br (stereo not drawn) [Compound 479, 3-bromo-2,2-bis(hydroxymethyl)-6-[3-(pyridin-3-yl)-1,2,4-oxadiazol-5-yl]-3,4-dihydro-2H-1-benzopyran-4-one]
21 | <6.5 | <5 | – | – | – | – | CC1(C)Oc2ccc(-c3nc(-c4ccncc4)no3)cc2C1=O [Compound 480, 2,2-dimethyl-5-[3-(pyridin-4-yl)-1,2,4-oxadiazol-5-yl]-2,3-dihydro-1-benzofuran-3-one]
22 | >6.5 | >5 | – | – | – | – | N#Cc1cc(-c2nnc(-c3ccc4[nH]c(=O)oc4c3)o2)ccc1NCC(F)F [Compound 488, 2-[(2,2-difluoroethyl)amino]-5-[5-(2-oxo-2,3-dihydro-1,3-benzoxazol-6-yl)-1,3,4-oxadiazol-2-yl]benzonitrile]
23 | – | – | > 75 | > 0.316 | > 75 | > 10 | Cc1cc(-c2noc(-c3ccc4c(c3)nnn4CC(C)(C)O)n2)c(C)o1 [Compound 493, 1-{5-[3-(2,5-dimethylfuran-3-yl)-1,2,4-oxadiazol-5-yl]-1H-1,2,3-benzotriazol-1-yl}-2-methylpropan-2-ol]
24 | <6.5 | >5 | – | – | – | – | COCC1(COC)CC(=O)c2cc(-c3nc(-c4ccncc4)no3)ccc2O1 [Compound 494, 2,2-bis(methoxymethyl)-6-[3-(pyridin-4-yl)-1,2,4-oxadiazol-5-yl]-3,4-dihydro-2H-1-benzopyran-4-one]
25 | >6.5 | >5 | – | – | – | – | CCC1(CC)CC(=O)c2cc(-c3nc(-c4ccoc4)no3)ccc2O1 [Compound 495, 2,2-diethyl-6-(3-(furan-3-yl)-1,2,4-oxadiazol-5-yl)chroman-4-one]
26 | >6.5 | >5 | < 75 | – | < 75 | – | CC(C)Oc1ccc(-c2ccc(-c3ccc4c(c3)nnn4C(C)C)cc2)cc1C#N [Compound 506, 4-isopropoxy-4′-(1-isopropyl-1H-benzo[d][1,2,3]triazol-5-yl)-[1,1′-biphenyl]-3-carbonitrile]
27 | <6.5 | <5 | > 75 | – | < 75 | – | C=CCNc1ccc(-c2ccc(-c3ccc4c(c3)nnn4C(C)C)cc2)cc1C#N [Compound 508, 4-(allylamino)-4′-(1-isopropyl-1H-benzo[d][1,2,3]triazol-5-yl)-[1,1′-biphenyl]-3-carbonitrile]
28 | <6.5 | <5 | – | – | – | – | CCC1(CC)CC(=O)c2cc(-c3ncc(-c4cccnc4)cn3)ccc2O1 [Compound 509, 2,2-diethyl-6-(5-(pyridin-3-yl)pyrimidin-2-yl)chroman-4-one]
29 | >6.5 | >5 | – | – | – | – | CCC1(CC)CC(=O)c2cc(-c3ncc(-c4ccncc4)cn3)ccc2O1 [Compound 510, 2,2-diethyl-6-(5-(pyridin-4-yl)pyrimidin-2-yl)chroman-4-one]
